Test results reported in patent US20230303565A1, “PESTICIDALLY ACTIVE HETEROCYCLIC DERIVATIVES WITH SULFUR CONTAINING SUBSTITUENTS” (SYNGENTA CROP PROTECTION AG, priority 2020, published 2023).

Assays:
Assay type in all cases: in vivo
[1] = test system: Chilo suppressalis (Striped Rice Stemborer); experiment: Activity against Chilo suppressalis (striped rice stemborer), artificial diet in 24-well plates; settings: 144 h, application rate of 200 ppm, L2 larvae, 6 days after infestation, in comparison to untreated samples, read-out: control (at least one of mortality, anti-feedant effect, growth inhibition)
Procedure: Example B1: Activity Against Chilo suppressalis (Striped Rice Stemborer)
24-well microtiter plates with artificial diet were treated with aqueous test solutions prepared from 10′000 ppm DMSO stock solutions by pipetting. After drying, the plates were infested with L2 larvae (6-8 per well). The samples were assessed for mortality, anti-feeding effect, and growth inhibition in comparison to untreated samples 6 days after infestation. Control of Chilo suppressalis by a test sample is given when at least one of the categories mortality, anti-feedant effect, and growth inhibition is higher than the untreated sample.

[2] = test system: Diabrotica Balteata (Corn Root Worm); experiment: Activity against Diabrotica balteata (corn root worm), maize sprouts on agar; settings: 96 h, application rate of 200 ppm, L2 larvae, 4 days after infestation, in comparison to untreated samples, read-out: effect in at least one of the two categories (mortality or growth inhibition)
Procedure: Example B2: Activity Against Diabrotica Balteata (Corn Root Worm)
Maize sprouts placed onto an agar layer in 24-well microtiter plates were treated with aqueous test solutions prepared from 10′000 ppm DMSO stock solutions by spraying. After drying, the plates were infested with L2 larvae (6 to 10 per well). The samples were assessed for mortality and growth inhibition in comparison to untreated samples 4 days after infestation.

[3] = test system: Plutella xylostella (Diamond Back Moth); experiment: Activity against Plutella xylostella (diamond back moth), artificial diet in 24-well plates; settings: 192 h, application rate of 200 ppm, Plutella eggs, 8 days after infestation, in comparison to untreated samples, read-out: effect in at least one of the two categories (mortality or growth inhibition)
Procedure: Example B6: Activity Against Plutella xylostella (Diamond Back Moth)
24-well microtiter plates with artificial diet were treated with aqueous test solutions prepared from 10′000 ppm DMSO stock solutions by pipetting. After drying, Plutella eggs were pipetted through a plastic stencil onto a gel blotting paper and the plate was closed with it. The samples were assessed for mortality and growth inhibition in comparison to untreated samples 8 days after infestation.

[4] = test system: Spodoptera littoralis (Egyptian Cotton Leaf Worm); experiment: Activity against Spodoptera littoralis (Egyptian cotton leaf worm), cotton leaf discs; settings: foliar, 72 h, application rate of 200 ppm, L1 larvae, 3 days after infestation, in comparison to untreated samples, read-out: control (at least one of mortality, anti-feedant effect, growth inhibition)
Procedure: Example B7: Activity Against Spodoptera littoralis (Egyptian Cotton Leaf Worm)
Cotton leaf discs were placed onto agar in 24-well microtiter plates and sprayed with aqueous test solutions prepared from 10′000 ppm DMSO stock solutions. After drying the leaf discs were infested with five L1 larvae. The samples were assessed for mortality, anti-feeding effect, and growth inhibition in comparison to untreated samples 3 days after infestation. Control of Spodoptera littoralis by a test sample is given when at least one of the categories mortality, anti-feedant effect, and growth inhibition is higher than the untreated sample.

[5] = test system: Myzus persicae (Green Peach Aphid); experiment: Activity against Myzus persicae (green peach aphid), feeding/contact activity, sunflower leaf discs; settings: foliar, 144 h, application rate of 200 ppm, aphid population of mixed ages, 6 days after infestation
Procedure: Example B5: Activity Against Myzus persicae (Green Peach Aphid) Feeding/Contact Activity
Sunflower leaf discs were placed onto agar in a 24-well microtiter plate and sprayed with aqueous test solutions prepared from 10′000 ppm DMSO stock solutions. After drying, the leaf discs were infested with an aphid population of mixed ages. The samples were assessed for mortality 6 days after infestation.

[6] = test system: Carpocapsa (Cydia) Pomonella (Codling Moth); experiment: Activity against Carpocapsa (Cydia) pomonella (codling moth), larvicide, feeding/contact, diet cubes; settings: 336 h, application rate of 12.5 ppm, L1 larvae, 14 days after infestation, 26-27° C.
Procedure: Example B9: Activity Against Carpocapsa (Cydia) Pomonella (Codling Moth)) Larvicide, Feeding/Contact
Diet cubes coated with paraffin were sprayed with diluted test solutions in an application chamber. After drying off the treated cubes (10 replicates) were infested with 1 L1 larvae. Samples were incubated at 26-27° C. and checked 14 days after infestation for mortality and growth inhibition.

[7] = test system: Bemisia tabaci (Cotton White Fly); experiment: Activity against Bemisia tabaci (cotton white fly), cotton leaf discs; settings: foliar, 144 h, application rate of 200 ppm, adult white flies, 6 days after incubation
Procedure: Example B8: Activity Against Bemisia tabaci (Cotton White Fly)
Cotton leaf discs were placed on agar in 24-well microtiter plates and sprayed with aqueous test solutions prepared from 10′000 ppm DMSO stock solutions. After drying the leaf discs were infested with adult white flies. The samples were checked for mortality 6 days after incubation.

[8] = test system: Frankliniella occidentalis (Western Flower Thrips); experiment: Activity against Frankliniella occidentalis (western flower thrips), feeding/contact activity, sunflower leaf discs; settings: foliar, 168 h, application rate of 200 ppm, population of mixed ages, 7 days after infestation
Procedure: Example B4: Activity Against Frankliniella occidentalis (Western Flower Thrips) Feeding/Contact Activity
Sunflower leaf discs were placed on agar in 24-well microtiter plates and sprayed with aqueous test solutions prepared from […] stock solutions. After drying the leaf discs were infested with a Frankliniella population of mixed ages. The samples were assessed for mortality 7 days after infestation.

[9] = test system: Euschistus heros (Neotropical Brown Stink Bug); experiment: Activity against Euschistus heros (neotropical brown stink bug), soybean leaves on agar; settings: 120 h, application rate of 200 ppm, N2 nymphs, 5 days after infestation, in comparison to untreated samples, read-out: effect in at least one of the two categories (mortality or growth inhibition)
Procedure: Example B3: Activity Against Euschistus heros (Neotropical Brown Stink Bug)
Soybean leaves on agar in 24-well microtiter plates were sprayed with aqueous test solutions prepared from 10′000 ppm DMSO stock solutions. After drying the leaves were infested with N2 nymphs. The samples were assessed for mortality and growth inhibition in comparison to untreated samples 5 days after infestation.

CCS(=O)(=O)c1c(N2Cc3cnc(C4CC4)cc3C2=O)nc2ccc(C(F)(F)F)cn12 [P10, 6-cyclopropyl-2-[3-ethylsulfonyl-6-(trifluoromethyl)imidazo[1,2-a]pyridin-2-yl]-3H-pyrrolo[3,4-c]pyridin-1-one]
≥ 80%: percent control (mortality, anti-feedant effect or growth inhibition) at 200 ppm [1] | percent effect (mortality or growth inhibition) at 200 ppm [2] | percent effect (mortality or growth inhibition) at 200 ppm [3] | percent control (mortality, anti-feedant effect or growth inhibition) at 200 ppm [4]

CCS(=O)(=O)c1c(N2Cc3ccc(S(=O)(=O)C4CC4)cc3C2=O)nc2ccc(C(F)(F)F)cn12 [P8, 6-cyclopropylsulfonyl-2-[3-ethylsulfonyl-6-(trifluoromethyl)imidazo[1,2-a]pyridin-2-yl]isoindolin-1-one]
≥ 80%: percent control (mortality, anti-feedant effect or growth inhibition) at 200 ppm [1] | percent effect (mortality or growth inhibition) at 200 ppm [2] | mortality at 200 ppm [5] | percent effect (mortality or growth inhibition) at 200 ppm [3] | percent control (mortality, anti-feedant effect or growth inhibition) at 200 ppm [4] | mortality at 12.5 ppm [6]

CCS(=O)(=O)c1c(N2Cc3ccc(C4CC4)cc3C2=O)nc2ccc(C(F)(F)F)cn12 [P12, 6-cyclopropyl-2-[3-ethylsulfonyl-6-(trifluoromethyl)imidazo[1,2-a]pyridin-2-yl]isoindolin-1-one]
≥ 80%: percent control (mortality, anti-feedant effect or growth inhibition) at 200 ppm [1] | percent effect (mortality or growth inhibition) at 200 ppm [2] | percent effect (mortality or growth inhibition) at 200 ppm [3] | percent control (mortality, anti-feedant effect or growth inhibition) at 200 ppm [4]

CCS(=O)(=O)c1c(N2Cc3ccc(C4(C#N)CC4)cc3C2=O)nc2ccc(C(C)(F)F)cn12 [P4, 1-[2-[6-(1,1-difluoroethyl)-3-ethylsulfonyl-imidazo[1,2-a]pyridin-2-yl]-3-oxo-isoindolin-5-yl]cyclopropanecarbonitrile]
≥ 80%: percent control (mortality, anti-feedant effect or growth inhibition) at 200 ppm [1] | percent effect (mortality or growth inhibition) at 200 ppm [2] | mortality at 200 ppm [5] | percent effect (mortality or growth inhibition) at 200 ppm [3] | percent control (mortality, anti-feedant effect or growth inhibition) at 200 ppm [4] | mortality at 200 ppm [7] | mortality at 12.5 ppm [6]

CCS(=O)(=O)c1c(N2Cc3ccc(C4(C#N)CC4)cc3C2=O)nc2ccc(C(C)(C)C#N)cn12 [P7, 1-[2-[6-(1-cyano-1-methyl-ethyl)-3-ethylsulfonyl-imidazo[1,2-a]pyridin-2-yl]-3-oxo-isoindolin-5-yl]cyclopropanecarbonitrile]
≥ 80%: percent control (mortality, anti-feedant effect or growth inhibition) at 200 ppm [1] | percent effect (mortality or growth inhibition) at 200 ppm [2] | percent effect (mortality or growth inhibition) at 200 ppm [3] | percent control (mortality, anti-feedant effect or growth inhibition) at 200 ppm [4]

CCS(=O)(=O)c1c(N2Cc3ccc(C4(C#N)CC4)cc3C2=O)nn2ccc(C(F)(F)F)cc12 [P3, 1-[2-[3-ethylsulfonyl-5-(trifluoromethyl)pyrazolo[1,5-a]pyridin-2-yl]-3-oxo-isoindolin-5-yl]cyclopropanecarbonitrile]
≥ 80%: percent control (mortality, anti-feedant effect or growth inhibition) at 200 ppm [1] | percent effect (mortality or growth inhibition) at 200 ppm [2] | percent effect (mortality or growth inhibition) at 200 ppm [3] | percent control (mortality, anti-feedant effect or growth inhibition) at 200 ppm [4] | mortality at 200 ppm [7]

CCS(=O)(=O)c1c(N2Cc3ccc(C4(C#N)CC4)cc3C2=O)nc2ccc(C3CC3)cn12 [P5, 1-[2-(6-cyclopropyl-3-ethylsulfonyl-imidazo[1,2-a]pyridin-2-yl)-3-oxo-isoindolin-5-yl]cyclopropanecarbonitrile]
≥ 80%: percent control (mortality, anti-feedant effect or growth inhibition) at 200 ppm [1] | percent effect (mortality or growth inhibition) at 200 ppm [2] | percent effect (mortality or growth inhibition) at 200 ppm [3] | percent control (mortality, anti-feedant effect or growth inhibition) at 200 ppm [4]

CCS(=O)(=O)c1c(N2Cc3ccc(C4(C#N)CC4)cc3C2=O)nc2ccc(C3(C#N)CC3)cn12 [P6, 1-[2-[6-(1-cyanocyclopropyl)-3-ethylsulfonyl-imidazo[1,2-a]pyridin-2-yl]-3-oxo-isoindolin-5-yl]cyclopropanecarbonitrile]
≥ 80%: percent control (mortality, anti-feedant effect or growth inhibition) at 200 ppm [1] | percent effect (mortality or growth inhibition) at 200 ppm [2] | mortality at 200 ppm [8] | mortality at 200 ppm [5] | percent effect (mortality or growth inhibition) at 200 ppm [3] | percent control (mortality, anti-feedant effect or growth inhibition) at 200 ppm [4] | mortality at 200 ppm [7] | mortality at 12.5 ppm [6]

CCS(=O)(=O)c1c(N2Cc3ccc(C4(C#N)CC4)cc3C2=O)nc2ccc(C(F)(F)F)cn12 [P1, 1-[2-[3-ethylsulfonyl-6-(trifluoromethyl)imidazo[1,2-a]pyridin-2-yl]-3-oxo-isoindolin-5-yl]cyclopropanecarbonitrile]
≥ 80%: percent control (mortality, anti-feedant effect or growth inhibition) at 200 ppm [1] | percent effect (mortality or growth inhibition) at 200 ppm [2] | percent effect (mortality or growth inhibition) at 200 ppm [9] | mortality at 200 ppm [8] | mortality at 200 ppm [5] | percent effect (mortality or growth inhibition) at 200 ppm [3] | percent control (mortality, anti-feedant effect or growth inhibition) at 200 ppm [4] | mortality at 12.5 ppm [6]

CCS(=O)(=O)c1c(N2Cc3ccc(OC(C)(C)C#N)cc3C2=O)nc2ccc(C(F)(F)F)cn12 [P9, 2-[2-[3-ethylsulfonyl-6-(trifluoromethyl)imidazo[1,2-a]pyridin-2-yl]-3-oxo-isoindolin-5-yl]oxy-2-methyl-propanenitrile]
≥ 80%: percent control (mortality, anti-feedant effect or growth inhibition) at 200 ppm [1] | percent effect (mortality or growth inhibition) at 200 ppm [2] | mortality at 200 ppm [5] | percent effect (mortality or growth inhibition) at 200 ppm [3] | percent control (mortality, anti-feedant effect or growth inhibition) at 200 ppm [4] | mortality at 200 ppm [7]

CCS(=O)(=O)c1c(N2Cc3ncc(C4(C#N)CC4)cc3C2=O)nc2ccc(C(F)(F)F)cn12 [P2, 1-[6-[3-ethylsulfonyl-6-(trifluoromethyl)imidazo[1,2-a]pyridin-2-yl]-5-oxo-7H-pyrrolo[3,4-b]pyridin-3-yl]cyclopropanecarbonitrile]
≥ 80%: percent control (mortality, anti-feedant effect or growth inhibition) at 200 ppm [1] | percent effect (mortality or growth inhibition) at 200 ppm [2] | percent effect (mortality or growth inhibition) at 200 ppm [9] | mortality at 200 ppm [8] | mortality at 200 ppm [5] | percent effect (mortality or growth inhibition) at 200 ppm [3] | percent control (mortality, anti-feedant effect or growth inhibition) at 200 ppm [4] | mortality at 12.5 ppm [6]

CCS(=O)(=O)c1c(N2Cc3ncc(C4CC4)cc3C2=O)nc2ccc(C(F)(F)F)cn12 [P11, 3-cyclopropyl-6-[3-ethylsulfonyl-6-(trifluoromethyl)imidazo[1,2-a]pyridin-2-yl]-7H-pyrrolo[3,4-b]pyridin-5-one]
≥ 80%: percent control (mortality, anti-feedant effect or growth inhibition) at 200 ppm [1] | percent effect (mortality or growth inhibition) at 200 ppm [3] | percent control (mortality, anti-feedant effect or growth inhibition) at 200 ppm [4]
